# System: Puccinia triticina; synonym: Puccinia recondita f. sp. tritici (PUCCRT)
# Assay: Wheat brown rust (PUCCRT) whole-plant fungicidal test
# Type: in vivo
# Settings: topical, 24 h, high volume application, 100 ppm, 1 Day Protectant, read-out: High Volume activity at 100 ppm PUCCRT 1DP (% disease control rating)
# Method: All fungicides were evaluated using the aforementioned method for their activity vs. all target diseases, unless stated otherwise. Wheat leaf blotch and brown rust activity were also evaluated using track spray applications, in which case the fungicides were formulated as EC formulations, containing 0.1% Trycol 5941 in the spray solutions. Wheat plants (variety Yuma) were grown from seed in a greenhouse in 50% mineral soil/50% soil-less Metro mix until the first leaf was fully emerged, with 7-10 seedlings per pot. These plants were inoculated with an aqueous spore suspension of Septoria tritici either prior to or after fungicide treatments. After inoculation the plants were kept in 100% relative humidity (one day in a dark dew chamber followed by two to three days in a lighted dew chamber at 20° C.) to permit spores to germinate and infect the leaf. The plants were then transferred to a greenhouse set at 20° C. for disease to develop. When disease symptoms were fully expressed on the 1st leaves of untreated plants, infection levels were assessed on a scale of 0 to 100 percent disease severity. Percent disease control was calculated using the ratio of disease severity on treated plants relative to untreated plants. Wheat plants (variety Yuma) were grown from seed in a greenhouse in 50% mineral soil/50% soil-less Metro mix until the first leaf was fully emerged, with 7-10 seedlings per pot. These plants were inoculated with an aqueous spore suspension of Puccinia triticina either prior to or after fungicide treatments. […] The plants were then transferred to a greenhouse set at 24° C. for disease to develop. Fungicide formulation, application and disease assessment followed the procedures as described in the Example A.
row,SMILES,pest or weed control at 100 ppm [%]
1,COc1ccnc(C(=O)N[C@H]2CCC[C@H](Cc3ccc(Cl)cc3)[C@@H](C3CCCC3)[C@H](C)OC2=O)c1O [Compound 84],> 70
2,CCC[C@H]1CCC[C@H](NC(=O)c2nccc(OC)c2O)C(=O)O[C@@H](C)[C@@H]1c1ccccc1 [Compound 91],> 70
3,COc1ccnc(C(=O)N[C@H]2CCC[C@H](CCC(C)C)[C@@H](CCc3ccccc3)[C@H](C)OC2=O)c1O [Compound 83],> 70
4,COc1ccnc(C(=O)N[C@H]2CCC[C@H](Cc3ccccc3)[C@@H](CCc3ccccc3)[C@H](C)OC2=O)c1O [Compound 78],> 70
5,COc1ccnc(C(=O)N[C@H]2CCC[C@H](CCCc3ccccc3)[C@@H](CCc3ccccc3)[C@H](C)OC2=O)c1O [Compound 85],> 70
6,COc1ccnc(C(=O)N[C@H]2CCC[C@H](Cc3ccc(C(F)(F)F)cc3)[C@@H](CC(C)C)[C@H](C)OC2=O)c1O [Compound 80],> 70
7,COc1ccnc(C(=O)N[C@H]2CCC[C@H](CCC(C)C)[C@@H](C3CCCC3)[C@H](C)OC2=O)c1O [Compound 87],> 70

# Same assay, conditions: topical, 24 h, low volume (track spray) application, 121.5 g/H, 1 Day Protectant, read-out: Low Volume activity at 121.5 g/H PUCCRT 1DP (% disease control rating)
row,SMILES,pest or weed control at 121.5 g/ha [%]
1,CCOCC(=O)OCOc1c(OC)ccnc1C(=O)N[C@H]1CCC[C@H](CCC(C)C)[C@@H](CCc2ccccc2)[C@H](C)OC1=O [Compound 35],> 70
2,COc1ccnc(C(=O)N[C@H]2CCC[C@H](Cc3ccc(C(F)(F)F)cc3)[C@@H](Cc3ccc(F)cc3)[C@H](C)OC2=O)c1OCOC(C)=O [Compound 39],< 70
3,COc1ccnc(C(=O)N[C@H]2CCC[C@H](Cc3ccccc3)[C@@H](Cc3ccc(F)cc3)[C@H](C)OC2=O)c1O [Compound 95],> 70
4,COc1ccnc(C(=O)N[C@H]2CCC[C@H](Cc3ccccc3)[C@@H](Cc3ccc(F)cc3)[C@H](C)OC2=O)c1OC(C)=O [Compound 62],> 70
5,COc1ccnc(C(=O)N[C@H]2CCC[C@H](Cc3ccccc3)[C@@H](CCC(C)C)[C@H](C)OC2=O)c1OC(=O)C(C)C [Compound 49],< 70
6,CCC[C@H]1CCC[C@H](NC(=O)c2nccc(OC)c2OCOC(C)=O)C(=O)O[C@@H](C)[C@@H]1c1ccccc1 [Compound 54],> 70
7,COc1ccnc(C(=O)N[C@H]2CCC[C@H](Cc3ccccc3)[C@@H](CCc3ccccc3)[C@H](C)OC2=O)c1OCOC(C)=O [Compound 15],> 70

# Same assay, conditions: topical, 72 h, high volume application, 100 ppm, 3 Day Curative, read-out: High Volume activity at 100 ppm PUCCRT 3DC (% disease control rating)
row,SMILES,pest or weed control at 100 ppm [%]
1,COc1ccnc(C(=O)N[C@H]2CCC[C@H](Cc3ccc(Cl)cc3)[C@@H](C3CCCC3)[C@H](C)OC2=O)c1O [Compound 84],< 70
2,CCC[C@H]1CCC[C@H](NC(=O)c2nccc(OC)c2O)C(=O)O[C@@H](C)[C@@H]1c1ccccc1 [Compound 91],< 70
3,COc1ccnc(C(=O)N[C@H]2CCC[C@H](CCC(C)C)[C@@H](CCc3ccccc3)[C@H](C)OC2=O)c1O [Compound 83],< 70
4,COc1ccnc(C(=O)N[C@H]2CCC[C@H](Cc3ccccc3)[C@@H](CCc3ccccc3)[C@H](C)OC2=O)c1O [Compound 78],< 70
5,COc1ccnc(C(=O)N[C@H]2CCC[C@H](CCCc3ccccc3)[C@@H](CCc3ccccc3)[C@H](C)OC2=O)c1O [Compound 85],< 70
6,COc1ccnc(C(=O)N[C@H]2CCC[C@H](Cc3ccc(C(F)(F)F)cc3)[C@@H](CC(C)C)[C@H](C)OC2=O)c1O [Compound 80],< 70
7,COc1ccnc(C(=O)N[C@H]2CCC[C@H](CCC(C)C)[C@@H](C3CCCC3)[C@H](C)OC2=O)c1O [Compound 87],< 70

# Same assay, conditions: topical, 72 h, low volume (track spray) application, 121.5 g/H, 3 Day Curative, read-out: Low Volume activity at 121.5 g/H PUCCRT 3DC (% disease control rating)
row,SMILES,pest or weed control at 121.5 g/ha [%]
1,CCOCC(=O)OCOc1c(OC)ccnc1C(=O)N[C@H]1CCC[C@H](CCC(C)C)[C@@H](CCc2ccccc2)[C@H](C)OC1=O [Compound 35],< 70
2,COc1ccnc(C(=O)N[C@H]2CCC[C@H](Cc3ccc(C(F)(F)F)cc3)[C@@H](Cc3ccc(F)cc3)[C@H](C)OC2=O)c1OCOC(C)=O [Compound 39],< 70
3,COc1ccnc(C(=O)N[C@H]2CCC[C@H](Cc3ccccc3)[C@@H](Cc3ccc(F)cc3)[C@H](C)OC2=O)c1O [Compound 95],< 70
4,COc1ccnc(C(=O)N[C@H]2CCC[C@H](Cc3ccccc3)[C@@H](Cc3ccc(F)cc3)[C@H](C)OC2=O)c1OC(C)=O [Compound 62],< 70
5,COc1ccnc(C(=O)N[C@H]2CCC[C@H](Cc3ccccc3)[C@@H](CCC(C)C)[C@H](C)OC2=O)c1OC(=O)C(C)C [Compound 49],< 70
6,CCC[C@H]1CCC[C@H](NC(=O)c2nccc(OC)c2OCOC(C)=O)C(=O)O[C@@H](C)[C@@H]1c1ccccc1 [Compound 54],> 70
7,COc1ccnc(C(=O)N[C@H]2CCC[C@H](Cc3ccccc3)[C@@H](CCc3ccccc3)[C@H](C)OC2=O)c1OCOC(C)=O [Compound 15],< 70

# System: Mycosphaerella graminicola; anamorph: Septoria tritici (SEPTTR)
# Assay: Leaf blotch of wheat (SEPTTR) whole-plant fungicidal test
# Type: in vivo
# Settings: Zymoseptoria tritici, topical, 24 h, high volume application, 100 ppm, 1 Day Protectant, read-out: High Volume activity at 100 ppm SEPTTR 1DP (% disease control rating)
# Method: All fungicides were evaluated using the aforementioned method for their activity vs. all target diseases, unless stated otherwise. Wheat leaf blotch and brown rust activity were also evaluated using track spray applications, in which case the fungicides were formulated as EC formulations, containing 0.1% Trycol 5941 in the spray solutions. Wheat plants (variety Yuma) were grown from seed in a greenhouse in 50% mineral soil/50% soil-less Metro mix until the first leaf was fully emerged, with 7-10 seedlings per pot. These plants were inoculated with an aqueous spore suspension of Septoria tritici either prior to or after fungicide treatments. After inoculation the plants were kept in 100% relative humidity (one day in a dark dew chamber followed by two to three days in a lighted dew chamber at 20° C.) to permit spores to germinate and infect the leaf. The plants were then transferred to a greenhouse set at 20° C. for disease to develop. When disease symptoms were fully expressed on the 1st leaves of untreated plants, infection levels were assessed on a scale of 0 to 100 percent disease severity. Percent disease control was calculated using the ratio of disease severity on treated plants relative to untreated plants.
row,SMILES,pest or weed control at 100 ppm [%]
1,COc1ccnc(C(=O)N[C@H]2CCC[C@H](Cc3ccc(Cl)cc3)[C@@H](C3CCCC3)[C@H](C)OC2=O)c1O [Compound 84],> 70
2,CCC[C@H]1CCC[C@H](NC(=O)c2nccc(OC)c2O)C(=O)O[C@@H](C)[C@@H]1c1ccccc1 [Compound 91],> 70
3,COc1ccnc(C(=O)N[C@H]2CCC[C@H](CCC(C)C)[C@@H](CCc3ccccc3)[C@H](C)OC2=O)c1O [Compound 83],> 70
4,COc1ccnc(C(=O)N[C@H]2CCC[C@H](Cc3ccccc3)[C@@H](CCc3ccccc3)[C@H](C)OC2=O)c1O [Compound 78],> 70
5,COc1ccnc(C(=O)N[C@H]2CCC[C@H](CCCc3ccccc3)[C@@H](CCc3ccccc3)[C@H](C)OC2=O)c1O [Compound 85],> 70
6,COc1ccnc(C(=O)N[C@H]2CCC[C@H](Cc3ccc(C(F)(F)F)cc3)[C@@H](CC(C)C)[C@H](C)OC2=O)c1O [Compound 80],> 70
7,COc1ccnc(C(=O)N[C@H]2CCC[C@H](CCC(C)C)[C@@H](C3CCCC3)[C@H](C)OC2=O)c1O [Compound 87],> 70

# Same assay, conditions: Zymoseptoria tritici, topical, 24 h, low volume (track spray) application, 121.5 g/H, 1 Day Protectant, read-out: Low Volume activity at 121.5 g/H SEPTTR 1DP (% disease control rating)
row,SMILES,pest or weed control at 121.5 g/ha [%]
1,CCOCC(=O)OCOc1c(OC)ccnc1C(=O)N[C@H]1CCC[C@H](CCC(C)C)[C@@H](CCc2ccccc2)[C@H](C)OC1=O [Compound 35],> 70
2,COc1ccnc(C(=O)N[C@H]2CCC[C@H](Cc3ccc(C(F)(F)F)cc3)[C@@H](Cc3ccc(F)cc3)[C@H](C)OC2=O)c1OCOC(C)=O [Compound 39],> 70
3,COc1ccnc(C(=O)N[C@H]2CCC[C@H](Cc3ccccc3)[C@@H](Cc3ccc(F)cc3)[C@H](C)OC2=O)c1O [Compound 95],> 70
4,COc1ccnc(C(=O)N[C@H]2CCC[C@H](Cc3ccccc3)[C@@H](Cc3ccc(F)cc3)[C@H](C)OC2=O)c1OC(C)=O [Compound 62],> 70
5,COc1ccnc(C(=O)N[C@H]2CCC[C@H](Cc3ccccc3)[C@@H](CCC(C)C)[C@H](C)OC2=O)c1OC(=O)C(C)C [Compound 49],> 70
6,CCC[C@H]1CCC[C@H](NC(=O)c2nccc(OC)c2OCOC(C)=O)C(=O)O[C@@H](C)[C@@H]1c1ccccc1 [Compound 54],> 70
7,COc1ccnc(C(=O)N[C@H]2CCC[C@H](Cc3ccccc3)[C@@H](CCc3ccccc3)[C@H](C)OC2=O)c1OCOC(C)=O [Compound 15],> 70

# Same assay, conditions: Zymoseptoria tritici, topical, 72 h, high volume application, 100 ppm, 3 Day Curative, read-out: High Volume activity at 100 ppm SEPTTR 3DC (% disease control rating)
row,SMILES,pest or weed control at 100 ppm [%]
1,COc1ccnc(C(=O)N[C@H]2CCC[C@H](Cc3ccc(Cl)cc3)[C@@H](C3CCCC3)[C@H](C)OC2=O)c1O [Compound 84],> 70
2,CCC[C@H]1CCC[C@H](NC(=O)c2nccc(OC)c2O)C(=O)O[C@@H](C)[C@@H]1c1ccccc1 [Compound 91],> 70
3,COc1ccnc(C(=O)N[C@H]2CCC[C@H](CCC(C)C)[C@@H](CCc3ccccc3)[C@H](C)OC2=O)c1O [Compound 83],< 70
4,COc1ccnc(C(=O)N[C@H]2CCC[C@H](Cc3ccccc3)[C@@H](CCc3ccccc3)[C@H](C)OC2=O)c1O [Compound 78],> 70
5,COc1ccnc(C(=O)N[C@H]2CCC[C@H](CCCc3ccccc3)[C@@H](CCc3ccccc3)[C@H](C)OC2=O)c1O [Compound 85],< 70
6,COc1ccnc(C(=O)N[C@H]2CCC[C@H](Cc3ccc(C(F)(F)F)cc3)[C@@H](CC(C)C)[C@H](C)OC2=O)c1O [Compound 80],< 70
7,COc1ccnc(C(=O)N[C@H]2CCC[C@H](CCC(C)C)[C@@H](C3CCCC3)[C@H](C)OC2=O)c1O [Compound 87],< 70

# Same assay, conditions: Zymoseptoria tritici, topical, 72 h, low volume (track spray) application, 121.5 g/H, 3 Day Curative, read-out: Low Volume activity at 121.5 g/H SEPTTR 3DC (% disease control rating)
row,SMILES,pest or weed control at 121.5 g/ha [%]
1,CCOCC(=O)OCOc1c(OC)ccnc1C(=O)N[C@H]1CCC[C@H](CCC(C)C)[C@@H](CCc2ccccc2)[C@H](C)OC1=O [Compound 35],> 70
2,COc1ccnc(C(=O)N[C@H]2CCC[C@H](Cc3ccc(C(F)(F)F)cc3)[C@@H](Cc3ccc(F)cc3)[C@H](C)OC2=O)c1OCOC(C)=O [Compound 39],> 70
3,COc1ccnc(C(=O)N[C@H]2CCC[C@H](Cc3ccccc3)[C@@H](Cc3ccc(F)cc3)[C@H](C)OC2=O)c1O [Compound 95],> 70
4,COc1ccnc(C(=O)N[C@H]2CCC[C@H](Cc3ccccc3)[C@@H](Cc3ccc(F)cc3)[C@H](C)OC2=O)c1OC(C)=O [Compound 62],> 70
5,COc1ccnc(C(=O)N[C@H]2CCC[C@H](Cc3ccccc3)[C@@H](CCC(C)C)[C@H](C)OC2=O)c1OC(=O)C(C)C [Compound 49],> 70
6,CCC[C@H]1CCC[C@H](NC(=O)c2nccc(OC)c2OCOC(C)=O)C(=O)O[C@@H](C)[C@@H]1c1ccccc1 [Compound 54],> 70
7,COc1ccnc(C(=O)N[C@H]2CCC[C@H](Cc3ccccc3)[C@@H](CCc3ccccc3)[C@H](C)OC2=O)c1OCOC(C)=O [Compound 15],> 70

# From US20150322051A1, “Macrocyclic picolinamides as fungicides” (Dow AgroSciences LLC, priority 2014, published 2015)
